Test results from patent publication US20170065564A1, “BIS-CYCLIC GUANIDINE COMPOUND COMPOSITIONS, METHODS OF USE AND TREATMENT THEREOF” (University of South Florida, priority 2014, published 2017).
≈ marks a conversion by molar mass, not a printed value.

Columns and labels:
Staphylococcus aureus = assay: MIC micro broth dilution assay; assay type: cell-based; conditions: for MIC: Staphylococcus aureus
Method in brief: (§1)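 Strains were multidrug-resistant clinical isolates grown in LB (Gram-negative) or TSB (Gram-positive), diluted 1:1,000 before compound addition.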

Klebsiella pneumoniae = assay: MIC micro broth dilution assay; assay type: cell-based; conditions: for MIC: Klebsiella pneumoniae
Method in brief: as §1

Acinetobacter baumannii = assay: MIC micro broth dilution assay; assay type: cell-based; conditions: for MIC: Acinetobacter baumannii
Method in brief: as §1

Pseudomonas aeruginosa = assay: MIC micro broth dilution assay; assay type: cell-based; conditions: for MIC: Pseudomonas aeruginosa
Method in brief: as §1

Enterobacter cloacae = assay: MIC micro broth dilution assay; assay type: cell-based; conditions: for MIC: Enterobacter cloacae
Method in brief: as §1

Enterococcus faecium = assay: MIC micro broth dilution assay; assay type: cell-based; conditions: for MIC: Enterococcus faecium
Method in brief: as §1

ESKAPE pathogens = assay: MIC micro broth dilution assay, statements and stacked scores over all ESKAPE pathogens; assay type: cell-based; conditions: letters E,S,K,A,P,E = ESKAPE pathogens, — = none
Method in brief: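 Overnight cultures of multidrug-resistant clinical isolates, diluted 1 in 1,000 (Gram-positives in TSB, Gram-negatives in LB), were exposed to decreasing compound concentrations in DMF (≤2.0%) at 37° C. MIC was read visually as no turbidity after 24 hours, in triplicate. Broad-spectrum activity was ranked by stacked scores.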

K. pneumoniae = assay: Resistance serial passage assay; assay type: cell-based, Klebsiella pneumoniae; conditions: 8 passages, concentration doubled each day
Method in brief: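 Cultures were diluted 1:100 and exposed to compound starting at half MIC, incubated 24 h at 37 °C. Each day, cells were passaged 1:100 into fresh media with compound at 2-fold higher concentration, for eight days in total. Run in triplicate.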

CCCCCCCN1C(=N)N(CCCC[C@H]2CNC(=N)N2CCCCC2CCCCC2)C[C@@H]1CC1CCCCC1 [Compound 16]
stacked score activity, 100/MIC, S (Staphylococcus aureus; S. aureus): 20
MIC (Staphylococcus aureus; S. aureus isolate 542): 2 µM (≈ 1.11 µg/mL)
MIC (Staphylococcus aureus; S. aureus isolate 626): 2 µM (≈ 1.11 µg/mL)
MIC (Staphylococcus aureus; S. aureus isolate 635): 2 µM (≈ 1.11 µg/mL)
MIC (Staphylococcus aureus; S. aureus isolate 648): 2 µM (≈ 1.11 µg/mL)
MIC (Staphylococcus aureus; S. aureus isolate 690): 2 µM (≈ 1.11 µg/mL)
MIC (Staphylococcus aureus; S. aureus isolate 693): 2 µM (≈ 1.11 µg/mL)
MIC (Staphylococcus aureus; S. aureus isolate 715): 2 µM (≈ 1.11 µg/mL)
MIC (Staphylococcus aureus; S. aureus isolate 728): 2 µM (≈ 1.11 µg/mL)
MIC (Staphylococcus aureus; S. aureus isolate 834): 2 µM (≈ 1.11 µg/mL)
MIC (Staphylococcus aureus; S. aureus isolate 1043): 2 µM (≈ 1.11 µg/mL)
MIC (Staphylococcus aureus; S. aureus isolate 1049): 2 µM (≈ 1.11 µg/mL)
MIC (Staphylococcus aureus; purified compound, Table 1): 1.62 µM (≈ 0.902 µg/mL)
stacked score activity, 100/MIC, K (Klebsiella pneumoniae; K. pneumoniae): 20
MIC (Klebsiella pneumoniae; K. pneumoniae isolate 1408): 2 µM (≈ 1.11 µg/mL)
MIC (Klebsiella pneumoniae; K. pneumoniae isolate 1409): 3 µM (≈ 1.67 µg/mL)
MIC (Klebsiella pneumoniae; K. pneumoniae isolate 1410): 3 µM (≈ 1.67 µg/mL)
MIC (Klebsiella pneumoniae; K. pneumoniae isolate 1411): 2 µM (≈ 1.11 µg/mL)
MIC (Klebsiella pneumoniae; K. pneumoniae isolate 1412): 3 µM (≈ 1.67 µg/mL)
MIC (Klebsiella pneumoniae; K. pneumoniae isolate 1413): 3 µM (≈ 1.67 µg/mL)
MIC (Klebsiella pneumoniae; K. pneumoniae isolate 1433): 2 µM (≈ 1.11 µg/mL)
MIC (Klebsiella pneumoniae; K. pneumoniae isolate 1434): 5 µM (≈ 2.78 µg/mL)
MIC (Klebsiella pneumoniae; K. pneumoniae isolate 1440): 3 µM (≈ 1.67 µg/mL)
MIC (Klebsiella pneumoniae; K. pneumoniae isolate 1441): 2 µM (≈ 1.11 µg/mL)
MIC (Klebsiella pneumoniae; purified compound, Table 1): 1.62 µM (≈ 0.902 µg/mL)
concentration inhibiting 90% of isolates (Klebsiella pneumoniae; panel of K. pneumoniae clinical isolates): 5 µM
stacked score activity, 100/MIC, A (Acinetobacter baumannii; A. baumannii): 33
MIC (Acinetobacter baumannii; A. baumannii isolate 1403): 2 µM (≈ 1.11 µg/mL)
MIC (Acinetobacter baumannii; A. baumannii isolate 1643): 2 µM (≈ 1.11 µg/mL)
MIC (Acinetobacter baumannii; A. baumannii isolate 1644): 2 µM (≈ 1.11 µg/mL)
MIC (Acinetobacter baumannii; A. baumannii isolate 1647): 2 µM (≈ 1.11 µg/mL)
MIC (Acinetobacter baumannii; A. baumannii isolate 1648): 2 µM (≈ 1.11 µg/mL)
MIC (Acinetobacter baumannii; A. baumannii isolate 1649): 2 µM (≈ 1.11 µg/mL)
MIC (Acinetobacter baumannii; A. baumannii isolate 1650): 2 µM (≈ 1.11 µg/mL)
MIC (Acinetobacter baumannii; A. baumannii isolate 1651): 2 µM (≈ 1.11 µg/mL)
MIC (Acinetobacter baumannii; A. baumannii isolate 1653): 2 µM (≈ 1.11 µg/mL)
MIC (Acinetobacter baumannii; A. baumannii isolate 1654): 2 µM (≈ 1.11 µg/mL)
MIC (Acinetobacter baumannii; purified compound, Table 1): 1.62 µM (≈ 0.902 µg/mL)
MIC (Pseudomonas aeruginosa; P. aeruginosa isolate 1414): 3 µM (≈ 1.67 µg/mL)
MIC (Pseudomonas aeruginosa; P. aeruginosa isolate 1415): 3 µM (≈ 1.67 µg/mL)
MIC (Pseudomonas aeruginosa; P. aeruginosa isolate 1416): 2 µM (≈ 1.11 µg/mL)
MIC (Pseudomonas aeruginosa; P. aeruginosa isolate 1417): 3 µM (≈ 1.67 µg/mL)
MIC (Pseudomonas aeruginosa; P. aeruginosa isolate 1418): 7 µM (≈ 3.9 µg/mL)
MIC (Pseudomonas aeruginosa; P. aeruginosa isolate 1419): 3 µM (≈ 1.67 µg/mL)
MIC (Pseudomonas aeruginosa; P. aeruginosa isolate 1420): 3 µM (≈ 1.67 µg/mL)
MIC (Pseudomonas aeruginosa; P. aeruginosa isolate 1421): 3 µM (≈ 1.67 µg/mL)
MIC (Pseudomonas aeruginosa; P. aeruginosa isolate 1422): 3 µM (≈ 1.67 µg/mL)
MIC (Pseudomonas aeruginosa; P. aeruginosa isolate 1423): 2 µM (≈ 1.11 µg/mL)
MIC (Pseudomonas aeruginosa; purified compound, Table 1): 1.62 µM (≈ 0.902 µg/mL)
concentration inhibiting 90% of isolates (Pseudomonas aeruginosa; panel of P. aeruginosa clinical isolates): 5 µM
stacked score activity, 100/MIC, E (Enterobacter cloacae; E. cloacae): 20
MIC (Enterobacter cloacae; E. cloacae isolate 1404): 2 µM (≈ 1.11 µg/mL)
MIC (Enterobacter cloacae; E. cloacae isolate 1405): 2 µM (≈ 1.11 µg/mL)
MIC (Enterobacter cloacae; E. cloacae isolate 1430): 2 µM (≈ 1.11 µg/mL)
MIC (Enterobacter cloacae; E. cloacae isolate 1431): 2 µM (≈ 1.11 µg/mL)
MIC (Enterobacter cloacae; E. cloacae isolate 1445): 2 µM (≈ 1.11 µg/mL)
MIC (Enterobacter cloacae; E. cloacae isolate 1446): 5 µM (≈ 2.78 µg/mL)
MIC (Enterobacter cloacae; E. cloacae isolate 1447): 2 µM (≈ 1.11 µg/mL)
MIC (Enterobacter cloacae; E. cloacae isolate 1448): 2 µM (≈ 1.11 µg/mL)
MIC (Enterobacter cloacae; E. cloacae isolate 1454): 2 µM (≈ 1.11 µg/mL)
MIC (Enterobacter cloacae; E. cloacae isolate 1455): 2 µM (≈ 1.11 µg/mL)
MIC (Enterobacter cloacae; purified compound, Table 1): 1.62 µM (≈ 0.902 µg/mL)
concentration inhibiting 90% of isolates (Enterobacter cloacae; panel of E. cloacae clinical isolates): 2 µM
stacked score activity, 100/MIC, E (Enterococcus faecium; E. faecium): 33
MIC (Enterococcus faecium; E. faecium isolate 1406): 2 µM (≈ 1.11 µg/mL)
MIC (Enterococcus faecium; E. faecium isolate 1407): 2 µM (≈ 1.11 µg/mL)
MIC (Enterococcus faecium; E. faecium isolate 1432): 2 µM (≈ 1.11 µg/mL)
MIC (Enterococcus faecium; E. faecium isolate 1438): 2 µM (≈ 1.11 µg/mL)
MIC (Enterococcus faecium; E. faecium isolate 1439): 2 µM (≈ 1.11 µg/mL)
MIC (Enterococcus faecium; E. faecium isolate 1443): 2 µM (≈ 1.11 µg/mL)
MIC (Enterococcus faecium; E. faecium isolate 1444): 2 µM (≈ 1.11 µg/mL)
MIC (Enterococcus faecium; E. faecium isolate 1449): 2 µM (≈ 1.11 µg/mL)
MIC (Enterococcus faecium; E. faecium isolate 1450): 2 µM (≈ 1.11 µg/mL)
MIC (Enterococcus faecium; E. faecium isolate 1451): 2 µM (≈ 1.11 µg/mL)
MIC (Enterococcus faecium; purified compound, Table 1): 1.62 µM (≈ 0.902 µg/mL)
pathogens against which the compound showed activity at 4 ug/ml (ESKAPE pathogens; dose 4 ug/ml): EAP
pathogens against which the compound showed activity at 5 ug/ml (ESKAPE pathogens; dose 5 ug/ml): ESKAPE
pathogens against which the compound showed activity at 10 ug/ml (ESKAPE pathogens; dose 10 ug/ml): ESKAPE
pathogens against which the compound showed activity at 25 ug/ml (ESKAPE pathogens; dose 25 ug/ml): ESKAPE
increase in MIC after serial passage (K. pneumoniae): 8 fold
